Laboratory results as given in patent publication US7772383B2, “Chemical PCR: Compositions for enhancing polynucleotide amplification reactions” (The Trustees of Princeton University, priority 2002, dated 2010).
Like-named read-outs stand apart in the source and are kept apart here.

Columns and labels:
[1] = test system: 996 bp segment of human myeloid leukocyte c-jun cDNA; test: PCR amplification of c-jun cDNA with diol additives, standard cycling; type: biochemical
Protocol: (§1) Amplification reactions were carried out under the following general conditions. Those skilled in the art will appreciate, however, that to the extent that the conditions (set forth in this application) required for specific experiments described in this example were inconsistent with the following general conditions, limited exceptions to the following general conditions were made The general conditions were as follows: 10 Mm Tris-HCl (Ph 8.8), 50 Mm KCl, 1.5 Mm MgCl2, 0.01% (w/v) gelatin, 0.2 Um primers, 0.06 ng/ul template, 0.2 Mm each Dntp, 0.04 U/ul Taq polymerase. The templates used were bovine brain N-WASP cDNA (1518 bp), a 996 bp segment of human myeloid leukocyte c-jun cDNA, a 511 bp segment of human prostate-specific membrane antigen (PSM) cDNA, and bovine brain glycolipid transfer protein (GTP) cDNA (660 bp). cDNA synthesis was carried out using the FIRST-STRAND® RT-PCR kit from Stratagene on the respective mRNAs purchased from Clontech. All amplification reactions for gene were carried out using a single master batch of cDNA. Taq polymerase and dNTPs were obtained from Stratagene. Primers were obtained from Genosys. Primer melting temperatures (Tms) were calculated using the Genosys oligo calculator program. The sequences of the primers were as follows.
(§2) Polymerase chain reactions for the N-WASP gene were conducted on a ROBOCYCLER® Gradient 40 thermal cycler from Stratagene using 100 ul solutions in 600 ul thin-walled tubes. For expediency, amplification of c-jun, PSM and GTP was carried out in a ROBOCYCLER® Gradient 96 thermal cycler from Stratagene using 50 ul solutions in 200 ul thin-walled tubes. Prior to Taq polymerase addition, a hotstart protocol was carried out that consisted of an initial cycle of 95° C. for 5 minutes (11) to ensure complete first-strand separation, followed by a cycle of 54° C. for 5 minutes. Amplifications were run for 30 cycles. […] Extension was done at 72° C. for periods depending on target length: 2 minutes for N-WASP, 1.5 minutes for c-jun and GTP, and 1 minute for PSM. Annealings were carried out either at fixed concentrations of additives using temperature gradients of 38-56° C. for N-WASP and 44-58° C. for the other targets, or at varying concentrations of additives using fixed temperatures of 41° C. for N-WASP, 50° C. for c-jun and PSM, and 54° C. for GTP.
(§3) Amplification products were analyzed by agarose gel electrophoresis on 0.8% agarose gels in which 20 ul reaction products were loaded with 4 ul loading buffer. Gels were stained with ethidium bromide, visualized on a UV transilluminator (Fisher), and documented by photography. Densitometric quantitation of amplification products was carried out using IMAGE SCANNER® and IMAGE MASTER® software from Amersham Pharmacia. Background correction was done using the software's rolling disc method.
(§4) With PSM, 1,2-propanediol, 1,2-butanediol, 1,3-butanediol, 1,4-butanediol and glycerol were tested; with c-jun, ethylene glycol and 1,3-propanediol were also tested in addition to these compounds. […] The following additive concentrations were tested using these annealing temperatures: 1,2-propanediol—0.5, 0.8, 1.1, 1.4, 1.7 and 2.0M; 1,2-butanediol—0.1, 0.3, 0.5, 0.6, 0.7 and 0.8M; 1,3-butanediol—0.1, 0.3, 0.5, 0.6, 0.9, 1.1, 1.2M; 1,4-butanediol—0.1 to 1.1M in 0.2M intervals; 1,5-pentanediol—0.1-0.6M in 0.1M intervals; glycerol—0.5 to 1.9M in 0.2M intervals, and 2.2M.

[2] = test system: bovine brain glycolipid transfer protein (GTP) cDNA (660 bp); test: PCR amplification of GTP cDNA with diol additives, standard cycling; type: biochemical; details: for amplification of GTP over annealing temperature gradients (in words): 95° C. denaturing temperature
Protocol: as §1, §2, §3
Investigations into the PCR enhancing capabilities of diol cosolvents were carried out using GTP as the primary template. […] The standard protocol for annealing temperature and concentration gradient screening was again followed. […] These cosolvents were thus omitted from further studies. The optimal annealing temperatures for the remaining compounds were: ethylene glycol, 1,2-propanediol, 1,3-propanediol and cis-1,2-cyclopentanediol—58° C.; 1,2-butanediol—54° C.; 1,3-butanediol and 1,4-butanediol—[…]; 2,4-pentanediol, 1,5-pentanediol, 1,6-hexanediol and MPD—56° C.

[3] = test system: 1026 by segment of the Thy-1 gene from rat genomic DNA; type: biochemical
[4] = test system: 511 bp segment of human prostate-specific membrane antigen (PSM) cDNA; test: PCR amplification of PSM cDNA with diol additives, standard cycling; type: biochemical; details: for Specificity / Effective range / Potency: PSM; for Specificity: best specificity (densitometric volume of target as percent of total volume) over the effective range; for Effective range: concentration interval over which densitometric volume of target is at least 50% of maximum; for Potency: normalized maximum densitometric volume of target band: 1,3-Butanediol = 1
Protocol: as §1, §2, §3, §4

[5] = when functional; general statement on prior use; cited from earlier work
[6] = test system: GC-rich segment of crab satellite DNA; details: literature (Varadaraj and Skinner, 1994); cited from earlier work
[7] = test system: 50% GC DNA; test: Predicted cosolvent-induced Tm depression of DNA; type: physicochemical; details: 1.0M 1,5-pentanediol, 0.7M 1,6-hexanediol, linearity not verified
Protocol: The compounds utilized in the first phase (testing using 1.0M 1,5-pentanediol and 0.7M 1,6-hexanediol at temperatures between 46 and 62° C.) were chosen on the basis of the following rationale. The optimal additive for a low temperature PCR reaction is one that lowers the melting temperature of DNA as much as possible while minimally compromising polymerase activity. 1,5-Pentanediol and 1,6-hexanediol are both powerful DNA melting agents. In addition, it was found in the 62° C. activity studies that the rate of activity decline with concentration of 1,5-pentanediol was roughly equivalent to that of 1,2-butanediol, despite the fact that the former is a much stronger DNA denaturant. 1.0M 1,5-pentanediol and 0.7M 1,6-hexanediol are predicted to lower the Tm of a 50% GC DNA by approximately the same amount: 19° C.

[8] = target: T1, Taq polymerase (Thermus aquaticus, UniProt P19821); test: Taq polymerase activity assays at low temperature in the presence of additives; type: biochemical; details: 1.0M 1,5-pentanediol, 0.7M 1,6-hexanediol; for Activity of Taq polymerase: normalized to activity of control at 62° C.; for Activation: change in Taq activity versus control
T1 construct: purchased Stratagene
Protocol: The measured polymerase activity, then, is in fact a function of two variables—temperature and additive concentration. The plot of measured activity versus temperature and additive concentration is a two-dimensional surface. While a truly comprehensive search for maximal polymerase activity would entail screening this entire surface, the number of experiments required to do so would of course be impractical. Therefore, polymerase activity was measured first as a function of temperature in the absence of additives and at one given, high additive concentration. The temperature that yielded the maximum activity of the polymerase at that concentration was then targeted for concentration gradient studies.
First, polymerase activity assays were carried out in the absence of additives and in the presence of 1.0M 1,5-pentanediol and 0.7M 1,6-hexanediol at temperatures between 46 and 62° C. Next, polymerase activity was studied at 53° C. in the presence of concentration gradients of 1,5-pentanediol, 2-pyrrolidone, sulfolane and tetramethylene sulfoxide. The concentrations tested were: 1,5-pentanediol: 1.0, 1.3, 1.5, 2.25, 3.0 and 3.5M; 2-pyrrolidone: 1.25, 1.5, 2.0 and 3.9M; sulfolane: 1.0, 1.5, 2.0 and 2.75M, tetramethylene sulfoxide: 1.0, 1.5, 2.0 and 3.0M.

[9] = GTP, 95° C. denaturing, 72° C. extension, normalized maximum densitometric volume of target band: 1,5-Pentanediol = 1
[10] = GTP, concentration interval over which densitometric volume of target band is at least 50% of maximum volume
[11] = c-jun, concentration interval over which densitometric volume of target band is at least 50% of maximum volume
[12] = c-jun, normalized maximum densitometric volume of target band: 1,5-Pentanediol = 1

T1 sequence (P19821 whole entry): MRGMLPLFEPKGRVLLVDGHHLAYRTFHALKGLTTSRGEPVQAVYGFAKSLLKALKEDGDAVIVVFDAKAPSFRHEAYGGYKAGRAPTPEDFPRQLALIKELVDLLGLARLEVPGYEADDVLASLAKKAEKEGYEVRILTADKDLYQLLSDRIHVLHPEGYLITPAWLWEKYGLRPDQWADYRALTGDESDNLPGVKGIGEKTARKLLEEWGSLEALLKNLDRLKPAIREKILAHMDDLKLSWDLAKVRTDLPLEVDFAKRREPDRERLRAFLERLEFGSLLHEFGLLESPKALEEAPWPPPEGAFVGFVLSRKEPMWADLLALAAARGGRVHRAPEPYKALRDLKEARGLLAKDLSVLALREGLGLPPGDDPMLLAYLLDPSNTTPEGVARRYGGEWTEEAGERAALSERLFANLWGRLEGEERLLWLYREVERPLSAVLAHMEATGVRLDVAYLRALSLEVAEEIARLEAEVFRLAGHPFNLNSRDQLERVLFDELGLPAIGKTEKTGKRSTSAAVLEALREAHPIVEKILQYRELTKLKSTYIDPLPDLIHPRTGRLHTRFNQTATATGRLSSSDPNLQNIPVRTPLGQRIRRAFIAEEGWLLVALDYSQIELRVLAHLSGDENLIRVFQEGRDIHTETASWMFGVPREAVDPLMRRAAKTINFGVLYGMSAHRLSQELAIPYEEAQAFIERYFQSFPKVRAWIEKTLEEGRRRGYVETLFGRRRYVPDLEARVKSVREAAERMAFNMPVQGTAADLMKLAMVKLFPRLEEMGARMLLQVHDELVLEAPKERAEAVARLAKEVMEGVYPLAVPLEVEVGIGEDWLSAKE

| SMILES | Potency [2, 9] | Effective range [2, 10] [M] | Effective range [1, 11] [M] | Potency [1, 12] | Specificity [4] [%] | Effective range [4] [M] | Potency [4] | further results |
| --- | --- | --- | --- | --- | --- | --- | --- | --- |
| OCCO [Ethylene glycol] | – | – | – | – | – | – | – | Effective range [1]: 0.71 to 3.10 M; Potency [1]: 0.58; Effective range [2]: 1.55 to 3.55 M; Potency [2]: 0.62; amplification yield of Thy-1 genomic DNA (in words) [3]: improve amplification yield |
| CCCC(O)CO (stereo not drawn) [1,2-Pentanediol] | – | – | – | – | – | – | – | amplification of GTP over annealing temperature gradients (in words) ([2]; GTP): detectable amplification only in very narrow concentration ranges |
| O[C@@H]1CCC[C@@H]1O [cis-1,2-Cyclopentanediol] | 0.91 | 0.13 to 0.35 | – | – | – | – | – | – |
| CC(O)CO (stereo not drawn) [1,2-Propanediol] | 0.64 | 0.52 to 1.79 | 0.43 to 1.87 | 0.60 | 89 | 0.65 to 1.40 | 0.75 | – |
| CC(O)CC(C)(C)O (stereo not drawn) [2-Methyl-2,4-Pentanediol] | 0.45 | 0.12 to 0.33 | – | – | – | – | – | – |
| OCCCCO [1,4-Butanediol] | – | – | – | – | 92 | 0.38 to 0.80 | 0.65 | Effective range [1]: 0.35 to 0.91 M; Potency [1]: 0.82; Effective range [2]: 0.16 to 0.77 M; Potency [2]: 0.87 |
| OCCCO [1,3-Propanediol] | 0.39 | 0.31 to 1.18 | 0.59 to 0.96 | 0.25 | – | – | – | – |
| O[C@@H]1CCC[C@H]1O (relative stereo) [trans-1,2-Cyclopentanediol] | – | – | – | – | – | – | – | amplification of GTP over annealing temperature gradients (in words) ([2]; GTP): inhibitory at all concentrations |
| OCC(O)CO [Glycerol, reference compound] | 0.28 | 0.26 to 1.17 | 0.50 to 1.25 | 0.13 | 83 | 1.10 to 1.63 | 0.22 | concentrations at which a positive effect on PCR is usually found [5]: 5-15%; enhancement of crab satellite DNA amplification relative to that provided by DMSO [6]: less than 25% |
| CC(O)CCO (stereo not drawn) [1,3-Butanediol] | 0.85 | 0.29 to 0.96 | 0.40 to 1.12 | 0.77 | 94 | 0.55 to 1.03 | 1.00 | PSM Potency ([4]; comparative standard 95/50/72° C., 0.8 M, best result under conventional conditions, normalization reference): 1.00; PSM Specificity ([4]; comparative standard 95/50/72° C., 0.8 M, densitometric volume of target band as percent of total volume): 94%; amplification yield of Thy-1 genomic DNA (in words) [3]: particularly dramatic improvement |
| OCCCCCCO [1,6-Hexanediol] | 0.80 | 0.13 to 0.29 | – | – | – | – | – | lowering of the Tm of a 50% GC DNA [7]: ~19 °C; Activity of Taq polymerase ([8]; 47° C.): 0.24; Activation ([8]; 47° C.): −27%; Activity of Taq polymerase ([8]; 48° C.): 0.36; Activation ([8]; 48° C.): −12%; Activity of Taq polymerase ([8]; 49° C.): 0.57; Activation ([8]; 49° C.): +16%; Activity of Taq polymerase ([8]; 50° C.): 0.60; Activation ([8]; 50° C.): +20%; Activity of Taq polymerase ([8]; 51° C.): 0.60; Activation ([8]; 51° C.): +13%; Activity of Taq polymerase ([8]; 52° C.): 0.64; Activation ([8]; 52° C.): +25%; Activity of Taq polymerase ([8]; 53° C.): 0.64; Activation ([8]; 53° C.): +12%; Activity of Taq polymerase ([8]; 54° C.): 0.60; Activation ([8]; 54° C.): −2%; Activity of Taq polymerase ([8]; 55° C.): 0.51; Activation ([8]; 55° C.): −27% |
| CCCCC(O)CO (stereo not drawn) [1,2-Hexanediol] | – | – | – | – | – | – | – | amplification of GTP over annealing temperature gradients (in words) ([2]; GTP): detectable amplification only in very narrow concentration ranges |
| CC(O)CC(C)O (stereo not drawn) [2,4-Pentanediol] | 0.61 | 0.25 to 0.70 | – | – | – | – | – | – |
